One may read the IC50 as the concentration that inhibits the measured activity by half. A higher IC50 goes with a need for much substance. For orientation: inhibition means the change of the read-out against control, counted positive when it falls.

From PMC10222270, “Natural Product-Based Screening for Lead Compounds Targeting SARS CoV-2 M^pro” (Pharmaceuticals, 2023) come the findings set out here.

Test [1] concerns the target T1, SARS CoV-2 M^pro (Severe acute respiratory syndrome coronavirus 2, UniProt P0DTD1).
T1 construct: The main protease (M^pro) is a part of the polyprotein chain, also named 3C-like protease; SUMO (cleaved yes); His; made in house; host or cells: Escherichia coli BL21(DE3)
Description: biochemical. It counts as biochemical. Particulars: for inhibition at 80 µM: read-out: Inhibition%(80μM); for result of retest over a concentration range: gradient concentrations.

The target of test [2] is T1, SARS CoV-2 M^pro. Description: nanoDSF thermal shift assay (TSA). Format: binding. Particulars: for △T: versus M^pro+DMSO; for Kd: x-intercept of linear regression of ΔTm on log10 of compound concentration, read-out: Kobs. For orientation: Differential scanning fluorimetry follows unfolding on heating by fluorescence.

Several values for one entry are separate records, joined by “and”; a condition that tells them apart may be missing. Identical values can stand only once.

As for `Cc1c(=O)c(=O)c2c3c[nH]c4c(C)c(=O)c(=O)c(c5c[nH]c1c52)c43` [melanin, Melanin], the “Inhibition%(80μM)” value at SARS CoV-2 M^pro [1] was 96.84% and 96.92%. For the same compound, the IC50 on SARS CoV-2 M^pro [1] (Without Triton X−100) was found to be 7.37 ± 0.368 µM. The inhibition at 80 µM at SARS CoV-2 M^pro [1] turned out to be 95.8%. The “Tm of M^pro” value came out at 55.0 °C at SARS CoV-2 M^pro [2] (compound 3.125 μM), 54.9 °C at SARS CoV-2 M^pro [2] (compound 50 μM) and 54.4 °C at SARS CoV-2 M^pro [2] (compound 200 μM). The “△T” value on SARS CoV-2 M^pro [2] (compound 3.125 μM) is 0.1 °C; on SARS CoV-2 M^pro [2] (compound 50 μM), 0.0 °C; on SARS CoV-2 M^pro [2] (compound 200 μM), -0.5 °C. For the same compound, the Kd at SARS CoV-2 M^pro [2] came out at 11.6 µM.

In the case of `COc1cc(O)c2c(c1)oc(=O)c1c3cc(O)c(O)cc3oc21` [wedelolactone, Wedelolactone], the “Inhibition%(80μM)” value on SARS CoV-2 M^pro [1] is 101.88% and 102.36%. Moreover, the figures for the IC50 against SARS CoV-2 M^pro [1] (0.02%(v/v) Triton X−100 in buffer) and against SARS CoV-2 M^pro [1] (Without Triton X−100) were 2.51 ± 0.276 µM and 1 ± 0.238 µM, respectively. Moreover, the inhibition at 80 µM at SARS CoV-2 M^pro [1] is 102%. Also, the figures for the “Tm of M^pro” value at SARS CoV-2 M^pro [2] (compound 3.125 μM), at SARS CoV-2 M^pro [2] (compound 50 μM) and on SARS CoV-2 M^pro [2] (compound 200 μM) were 55.2 °C, 55.8 °C and 56.1 °C, respectively. Besides, the “△T” value at SARS CoV-2 M^pro [2] (compound 3.125 μM) came to 0.3 °C; on SARS CoV-2 M^pro [2] (compound 50 μM), 0.9 °C; on SARS CoV-2 M^pro [2] (compound 200 μM), 1.2 °C. Moreover, the Kd at SARS CoV-2 M^pro [2] stood at 0.977 µM.

For the compound `CC(=O)O[C@H]1[C@H](OCCc2ccc(O)c(O)c2)O[C@H](CO)[C@@H](OC(=O)/C=C/c2ccc(O)c(O)c2)[C@@H]1O[C@@H]1O[C@@H](C)[C@H](O)[C@@H](O)[C@H]1O` [2'-Acetylacteoside], at SARS CoV-2 M^pro [1], the “Inhibition%(80μM)” value was 93.37% and 90.77%; the inhibition at 80 µM came to 90.6%.

In the case of `CCCCCC/C=C\CCCCCCCCCc1cccc(O)c1C(=O)O` [Ginkgolic Acid C17:1], at SARS CoV-2 M^pro [1], the “Inhibition%(80μM)” value was 100.63% and 101.61%; the inhibition at 80 µM is 102%.

In the case of `COc1ccc2c(c[n+](C)c3c4cc5c(cc4ccc23)OCO5)c1OC` [Chelerythrine chloride], at SARS CoV-2 M^pro [1], the “Inhibition%(80μM)” value was 98.66% and 98.31% and 98.46%.

Consider `CC(C)c1cc2c(c(O)c1O)[C@@]13CCCC(C)(C)[C@@H]1C[C@@H]2OC3=O` [Carnosol], for which, on SARS CoV-2 M^pro [1], the “Inhibition%(80μM)” value is 73.35% and 80.59%; the inhibition at 80 µM amounted to 74.5%.

As to `CCCCC/C=C\C/C=C\CCCCCCCCCC(=O)O` [Eicosadienoic Acid], at SARS CoV-2 M^pro [1], the “Inhibition%(80μM)” value is 103.14% and 107.18%; the inhibition at 80 µM came to 105%.

As to `O=C(O[C@@H]1Cc2c(O)cc(O)cc2O[C@@H]1c1cc(O)c(O)c(O)c1)c1cc(O)c(O)c(O)c1` [(-)-Epigallocatechin Gallate], on SARS CoV-2 M^pro [1], the “Inhibition%(80μM)” value was 85.53% and 79.02%; the inhibition at 80 µM was determined as 82.6%.

Turning to `CCCCCCCC/C=C/CCCCCCCC(=O)O` [Elaidic Acid], at SARS CoV-2 M^pro [1], the “Inhibition%(80μM)” value was 79.40% and 87.31%; the inhibition at 80 µM turned out to be 74.9%.

For the compound `CCCCCCCCCCC/C=C\CCCCC(=O)O` [Petroselinic Acid], at SARS CoV-2 M^pro [1], the “Inhibition%(80μM)” value is 105.29% and 103.73%; the inhibition at 80 µM was found to be 104%.

In the case of `Cc1ccc(O)c(O)c1` [4-Methylcatechol], on SARS CoV-2 M^pro [1], the “Inhibition%(80μM)” value is 102.51% and 102.92%; the inhibition at 80 µM stood at 103%.

As for `CCCOC(=O)c1cc(O)c(O)c(O)c1` [Propyl Gallate], at SARS CoV-2 M^pro [1], the “Inhibition%(80μM)” value was 78.61% and 79.43%; the inhibition at 80 µM is 78.5%.

For the compound `O=C(/C=C/c1ccc(O)c(O)c1)O[C@H](Cc1ccc(O)c(O)c1)C(=O)O` [Rosmarinic Acid], the “Inhibition%(80μM)” value on SARS CoV-2 M^pro [1] was 46.31% and 76.08% and 69.63%.

Regarding `C=C1C(=O)[C@]23[C@H](O)[C@H]1CC[C@H]2[C@@]12CO[C@]3(O)[C@@H](O)[C@@H]1C(C)(C)CC[C@@H]2O` [Oridonin], on SARS CoV-2 M^pro [1], the “Inhibition%(80μM)” value was 83.80% and 85.60%; the inhibition at 80 µM came to 84.3%.

With `COC(=O)[C@@H](Cc1ccc(O)c(O)c1)OC(=O)[C@@H]1c2c(/C=C/C(=O)O[C@H](Cc3ccc(O)c(O)c3)C(=O)O)ccc(O)c2O[C@H]1c1ccc(O)c(O)c1` [9'-Methyl Lithospermate B], on SARS CoV-2 M^pro [1], the “Inhibition%(80μM)” value was 72.67% and 74.36%; the inhibition at 80 µM was 73.6%.

Take `C[C@@H]1O[C@@H](OC[C@H]2O[C@@H](OCCc3ccc(O)c(O)c3)[C@H](O)[C@@H](O)[C@@H]2OC(=O)/C=C/c2ccc(O)c(O)c2)[C@H](O)[C@H](O)[C@H]1O` [Forsythoside A]: at SARS CoV-2 M^pro [1], the “Inhibition%(80μM)” value was 73.60% and 71.69%; the inhibition at 80 µM came out at 77%.

Consider `Oc1ccc2c(c1)OC[C@]1(O)Cc3cc(O)c(O)cc3[C@H]21` [Brazilin], for which, at SARS CoV-2 M^pro [1], the “Inhibition%(80μM)” value is 101.06% and 101.28%; the inhibition at 80 µM is 101%.

As for `O=C(O)[C@H]1O[C@@H](Oc2cc3oc(-c4ccc(O)cc4)cc(=O)c3c(O)c2O)[C@H](O)[C@@H](O)[C@@H]1O` [Breviscapin], on SARS CoV-2 M^pro [1], the “Inhibition%(80μM)” value is 78.06% and 77.78%; the inhibition at 80 µM was 66%.

As for Harmol, the “Inhibition%(80μM)” value on SARS CoV-2 M^pro [1] is 74.50% and 81.33% and 79.31%.

On to `C[n+]1cc2c3c(ccc2c2ccc4cc5c(cc4c21)OCO5)OCO3` [sanguinarine, Sanguinarine], for which, at SARS CoV-2 M^pro [1], the “Inhibition%(80μM)” value was 107.86% and 107.40% and 108.34%; the “result of retest over a concentration range” value is reported as “no inhibitory effect on M^pro when retested”.

As to `CCCCCC/C=C\CCCCCCCC(=O)O` [Palmitoleic Acid], on SARS CoV-2 M^pro [1], the “Inhibition%(80μM)” value is 103.78% and 102.80%; the inhibition at 80 µM is 103%.

As for `CC1=CC(=O)c2c(O)cccc2C1=O` [Plumbagin], on SARS CoV-2 M^pro [1], the “Inhibition%(80μM)” value is 74.76% and 75.47%; the inhibition at 80 µM stood at 70.2%.

`COc1ccc2c(c[n+](C)c3c4cc5c(cc4ccc23)OCO5)c1OC` [Chelerythrine]: on SARS CoV-2 M^pro [1], the “Inhibition%(80μM)” value was 98.97% and 99.51%; the inhibition at 80 µM turned out to be 99.4%.

As for `CC(C)=CCC/C(C)=C/Cc1cc(-c2coc3cc(O)ccc3c2=O)ccc1O` [corylifol A, Corylifol A], at SARS CoV-2 M^pro [1], the “Inhibition%(80μM)” value is 100.01% and 99.99%; the “result of retest over a concentration range” value is reported as “unable to generate a whole curve within the concentration range”; the inhibition at 80 µM is 100%.

Consider `C[C@@H]1CC[C@]2(C(=O)O)CC[C@]3(C)C(=CC[C@@H]4[C@@]5(C)CC[C@H](O[C@@H]6OC[C@H](O)[C@H](O)[C@H]6O)C(C)(C)[C@@H]5CC[C@]43C)[C@@H]2[C@]1(C)O` [Ziyuglycoside II], for which the “Inhibition%(80μM)” value on SARS CoV-2 M^pro [1] is 70.21% and 74.61% and 47.27%.

With `O=C(O)[C@H]1O[C@@H](Oc2cc3oc(-c4ccccc4)cc(=O)c3c(O)c2O)[C@H](O)[C@@H](O)[C@@H]1O` [Baicalin], on SARS CoV-2 M^pro [1], the “Inhibition%(80μM)” value amounted to 72.02% and the inhibition at 80 µM worked out at 77.5%.

Turning to `CC(C)=CCC[C@]1(C)C=Cc2c(O)c3c(c(CC=C(C)C)c2O1)O[C@]12C(=C[C@@H]4C[C@H]1C(C)(C)O[C@@]2(C/C=C(/C)C(=O)O)C4=O)C3=O` [Gambogic Acid], at SARS CoV-2 M^pro [1], the “Inhibition%(80μM)” value was 78.61% and 79.43%; the inhibition at 80 µM was 78.5%.

Take `C[C@@H]1OC(O[C@@H]2[C@@H](O)[C@H](OCCc3ccc(O)c(O)c3)O[C@H](CO[C@@H]3OC[C@@H](O)[C@H](O)[C@H]3O)[C@H]2OC(=O)/C=C/c2ccc(O)c(O)c2)[C@H](O)[C@H](O)[C@H]1O` (stereo partly shown) [Arenarioside]: on SARS CoV-2 M^pro [1], the “Inhibition%(80μM)” value was 99.86% and 99.31%; the inhibition at 80 µM turned out to be 99.1%.
